Experimental data published in patent US20250326753A1, “DUAL CXCR4-BTK INHIBITORS” (X4 Pharmaceuticals, Inc., priority 2022, published 2025).

What was measured:
Format in all cases: biochemical
[1] = molecular target: T1, MAP4K5 (Homo sapiens, UniProt Q9Y4K4); assay: PanQinase kinase panel: MAP4K5; details: read-out: INHIBITORY EFFECT @ 1 uM: MAP4K5
T1 construct: purchased Reaction Biology Europe GmbH
Description: (§1) Screening procedures were performed in accordance with the company's on-line protocol [accessed on-line Mar.
(§2) For each kinase, the median value of the cpm of three wells was defined as “low control” (n=3). This value reflects unspecific binding of radioactivity to the plate in the absence of a protein kinase but in the presence of the substrate. Additionally, for each kinase the median value of the cpm of three other wells was taken as the “high control,” i.e. full activity in the absence of any inhibitor (n=3). The difference between high and low control of each enzyme was taken as 100% activity.
(§3) As part of the data evaluation the low control of each kinase was subtracted from the high control value as well as from their corresponding “compound values”. The residual activity (in %) for each compound well was calculated by using the following formula: Res. Activity (%)=100×[(signal of compound−low control)/(high control−low control)].

[2] = molecular target: T2, LRRK2 (Homo sapiens, UniProt Q5S007); assay: PanQinase kinase panel: LRRK2; details: read-out: INHIBITORY EFFECT @ 1 uM: LRRK2
T2 construct: purchased Reaction Biology Europe GmbH
T2 sequence (Q5S007 whole entry): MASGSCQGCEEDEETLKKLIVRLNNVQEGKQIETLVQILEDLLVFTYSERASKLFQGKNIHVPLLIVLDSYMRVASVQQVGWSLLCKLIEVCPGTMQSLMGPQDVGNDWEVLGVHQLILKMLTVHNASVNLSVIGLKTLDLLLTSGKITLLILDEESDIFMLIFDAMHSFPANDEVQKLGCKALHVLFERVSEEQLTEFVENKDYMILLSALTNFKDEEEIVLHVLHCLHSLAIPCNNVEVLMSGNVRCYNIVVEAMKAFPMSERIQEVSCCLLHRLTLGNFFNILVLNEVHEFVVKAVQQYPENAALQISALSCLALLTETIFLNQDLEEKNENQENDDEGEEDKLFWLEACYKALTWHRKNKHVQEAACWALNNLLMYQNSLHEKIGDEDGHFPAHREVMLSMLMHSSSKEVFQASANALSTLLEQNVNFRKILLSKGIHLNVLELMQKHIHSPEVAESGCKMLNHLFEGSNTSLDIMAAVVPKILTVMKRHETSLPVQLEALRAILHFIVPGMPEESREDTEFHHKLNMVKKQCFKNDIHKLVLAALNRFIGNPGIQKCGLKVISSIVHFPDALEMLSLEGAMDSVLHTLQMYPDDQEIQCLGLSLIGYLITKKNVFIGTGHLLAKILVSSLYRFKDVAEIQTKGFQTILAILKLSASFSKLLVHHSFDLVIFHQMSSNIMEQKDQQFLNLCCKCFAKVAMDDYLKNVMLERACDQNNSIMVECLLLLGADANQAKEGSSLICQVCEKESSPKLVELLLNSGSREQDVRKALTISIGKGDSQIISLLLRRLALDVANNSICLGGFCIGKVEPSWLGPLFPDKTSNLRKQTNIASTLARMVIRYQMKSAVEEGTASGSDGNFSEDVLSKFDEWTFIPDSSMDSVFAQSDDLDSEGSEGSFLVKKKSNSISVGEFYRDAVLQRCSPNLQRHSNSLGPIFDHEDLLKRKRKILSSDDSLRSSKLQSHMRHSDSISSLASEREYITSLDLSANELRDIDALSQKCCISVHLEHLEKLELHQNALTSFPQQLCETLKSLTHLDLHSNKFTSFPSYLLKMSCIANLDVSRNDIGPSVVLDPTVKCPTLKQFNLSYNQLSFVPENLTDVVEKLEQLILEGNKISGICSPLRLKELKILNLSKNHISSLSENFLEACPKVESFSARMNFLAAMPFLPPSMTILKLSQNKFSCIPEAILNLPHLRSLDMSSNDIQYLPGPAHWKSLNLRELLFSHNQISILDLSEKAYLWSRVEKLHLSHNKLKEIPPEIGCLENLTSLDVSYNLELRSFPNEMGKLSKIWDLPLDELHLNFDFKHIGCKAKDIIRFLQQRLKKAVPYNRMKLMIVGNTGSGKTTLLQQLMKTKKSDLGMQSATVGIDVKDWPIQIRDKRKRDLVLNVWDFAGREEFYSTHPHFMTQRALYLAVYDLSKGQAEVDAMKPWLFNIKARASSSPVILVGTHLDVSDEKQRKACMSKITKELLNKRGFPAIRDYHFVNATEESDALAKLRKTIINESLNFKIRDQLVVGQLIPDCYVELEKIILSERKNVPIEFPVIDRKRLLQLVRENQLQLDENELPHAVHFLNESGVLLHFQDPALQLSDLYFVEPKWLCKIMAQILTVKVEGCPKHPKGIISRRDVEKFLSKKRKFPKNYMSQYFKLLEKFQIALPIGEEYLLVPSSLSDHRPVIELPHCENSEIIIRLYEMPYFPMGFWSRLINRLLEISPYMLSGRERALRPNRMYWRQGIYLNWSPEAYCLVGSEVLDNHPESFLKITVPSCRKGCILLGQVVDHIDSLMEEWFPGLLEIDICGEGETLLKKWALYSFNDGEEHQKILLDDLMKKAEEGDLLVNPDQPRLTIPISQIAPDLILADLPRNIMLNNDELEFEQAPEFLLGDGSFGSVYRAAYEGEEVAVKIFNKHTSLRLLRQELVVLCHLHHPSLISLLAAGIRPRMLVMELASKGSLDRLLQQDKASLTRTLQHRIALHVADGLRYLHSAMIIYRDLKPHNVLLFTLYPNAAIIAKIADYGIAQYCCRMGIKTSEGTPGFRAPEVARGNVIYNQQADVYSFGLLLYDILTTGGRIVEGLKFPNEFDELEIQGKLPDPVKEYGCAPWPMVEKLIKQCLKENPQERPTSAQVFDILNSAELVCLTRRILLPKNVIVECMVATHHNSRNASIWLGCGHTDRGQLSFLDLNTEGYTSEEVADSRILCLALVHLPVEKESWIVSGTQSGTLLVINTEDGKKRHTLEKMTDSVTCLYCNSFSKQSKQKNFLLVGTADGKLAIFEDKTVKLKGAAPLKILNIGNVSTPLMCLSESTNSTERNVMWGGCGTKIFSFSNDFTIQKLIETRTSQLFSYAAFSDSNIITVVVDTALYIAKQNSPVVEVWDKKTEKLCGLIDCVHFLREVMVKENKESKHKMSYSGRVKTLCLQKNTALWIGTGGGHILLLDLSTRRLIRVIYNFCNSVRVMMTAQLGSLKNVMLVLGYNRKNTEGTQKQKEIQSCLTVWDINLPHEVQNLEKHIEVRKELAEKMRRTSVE
Description: as §1, §2, §3

[3] = molecular target: T3, EPHB2 (Homo sapiens, UniProt P29323); assay: PanQinase kinase panel: EPHB2; details: read-out: INHIBITORY EFFECT @ 1 uM: EPHB2
T3 construct: purchased Reaction Biology Europe GmbH
T3 sequence (P29323 19-1055): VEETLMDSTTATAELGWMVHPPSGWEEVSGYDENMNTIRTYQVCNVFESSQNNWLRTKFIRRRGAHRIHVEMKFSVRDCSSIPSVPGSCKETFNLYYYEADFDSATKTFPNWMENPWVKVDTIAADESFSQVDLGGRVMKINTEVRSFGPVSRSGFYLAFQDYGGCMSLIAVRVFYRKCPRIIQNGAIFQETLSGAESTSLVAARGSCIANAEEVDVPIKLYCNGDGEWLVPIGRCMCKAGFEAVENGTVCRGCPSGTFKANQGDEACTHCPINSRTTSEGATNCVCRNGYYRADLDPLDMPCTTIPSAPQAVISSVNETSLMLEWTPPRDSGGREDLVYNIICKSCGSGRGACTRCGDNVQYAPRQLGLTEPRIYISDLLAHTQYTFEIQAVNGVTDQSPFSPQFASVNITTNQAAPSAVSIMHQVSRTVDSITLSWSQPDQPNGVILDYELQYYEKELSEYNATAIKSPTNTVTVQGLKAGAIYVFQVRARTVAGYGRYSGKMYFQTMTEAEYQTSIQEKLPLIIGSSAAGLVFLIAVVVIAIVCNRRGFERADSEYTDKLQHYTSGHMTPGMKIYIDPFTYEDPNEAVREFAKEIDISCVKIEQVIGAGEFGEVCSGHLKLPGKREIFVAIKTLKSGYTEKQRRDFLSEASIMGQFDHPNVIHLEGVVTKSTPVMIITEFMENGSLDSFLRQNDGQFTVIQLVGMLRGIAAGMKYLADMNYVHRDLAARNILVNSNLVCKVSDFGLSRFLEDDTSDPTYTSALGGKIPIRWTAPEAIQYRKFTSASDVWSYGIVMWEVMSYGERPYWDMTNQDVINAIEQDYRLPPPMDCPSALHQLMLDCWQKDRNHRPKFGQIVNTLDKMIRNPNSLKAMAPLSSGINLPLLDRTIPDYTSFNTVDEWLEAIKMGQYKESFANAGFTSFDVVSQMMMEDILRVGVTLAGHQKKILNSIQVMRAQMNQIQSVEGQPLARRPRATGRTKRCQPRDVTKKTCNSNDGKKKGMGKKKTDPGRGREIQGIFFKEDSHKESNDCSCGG
Description: as §1, §2, §3

[4] = molecular target: T4, BTK (Bruton tyrosine kinase) (Homo sapiens, UniProt Q06187); assay: BTK screening assay (33PanQinase Activity Assay, radiometric); details: Inhibition of BTK, radiometric 33PanQinase Activity Assay, 3 μM ATP, 10 concentrations in singlicate, top 10 μM; read-out: 33PanQinase ® Radiometric IC50
T4 construct: GST or His (the text leaves open which); purchased Reaction Biology Europe GmbH Lot 012,11; host or cells: Sf9 insect cells or E. coli (not resolved)
T4 sequence (Q06187 whole entry): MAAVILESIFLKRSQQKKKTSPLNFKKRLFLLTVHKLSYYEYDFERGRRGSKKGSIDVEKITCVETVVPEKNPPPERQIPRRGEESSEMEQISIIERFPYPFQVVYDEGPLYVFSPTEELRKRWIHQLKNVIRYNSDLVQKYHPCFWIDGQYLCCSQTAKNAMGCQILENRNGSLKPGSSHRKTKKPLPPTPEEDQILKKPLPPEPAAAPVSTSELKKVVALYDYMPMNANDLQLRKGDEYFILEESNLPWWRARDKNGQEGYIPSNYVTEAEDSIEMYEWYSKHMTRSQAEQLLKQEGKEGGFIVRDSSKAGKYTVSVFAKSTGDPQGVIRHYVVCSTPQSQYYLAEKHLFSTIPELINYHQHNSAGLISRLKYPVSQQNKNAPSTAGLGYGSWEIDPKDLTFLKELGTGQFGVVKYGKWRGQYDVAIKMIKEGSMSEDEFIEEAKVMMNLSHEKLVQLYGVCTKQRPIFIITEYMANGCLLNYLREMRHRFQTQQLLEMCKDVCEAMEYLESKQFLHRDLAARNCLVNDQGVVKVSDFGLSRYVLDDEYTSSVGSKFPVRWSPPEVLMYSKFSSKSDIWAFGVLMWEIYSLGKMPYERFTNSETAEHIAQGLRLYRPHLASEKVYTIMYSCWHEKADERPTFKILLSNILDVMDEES

T1 sequence (Q9Y4K4 whole entry): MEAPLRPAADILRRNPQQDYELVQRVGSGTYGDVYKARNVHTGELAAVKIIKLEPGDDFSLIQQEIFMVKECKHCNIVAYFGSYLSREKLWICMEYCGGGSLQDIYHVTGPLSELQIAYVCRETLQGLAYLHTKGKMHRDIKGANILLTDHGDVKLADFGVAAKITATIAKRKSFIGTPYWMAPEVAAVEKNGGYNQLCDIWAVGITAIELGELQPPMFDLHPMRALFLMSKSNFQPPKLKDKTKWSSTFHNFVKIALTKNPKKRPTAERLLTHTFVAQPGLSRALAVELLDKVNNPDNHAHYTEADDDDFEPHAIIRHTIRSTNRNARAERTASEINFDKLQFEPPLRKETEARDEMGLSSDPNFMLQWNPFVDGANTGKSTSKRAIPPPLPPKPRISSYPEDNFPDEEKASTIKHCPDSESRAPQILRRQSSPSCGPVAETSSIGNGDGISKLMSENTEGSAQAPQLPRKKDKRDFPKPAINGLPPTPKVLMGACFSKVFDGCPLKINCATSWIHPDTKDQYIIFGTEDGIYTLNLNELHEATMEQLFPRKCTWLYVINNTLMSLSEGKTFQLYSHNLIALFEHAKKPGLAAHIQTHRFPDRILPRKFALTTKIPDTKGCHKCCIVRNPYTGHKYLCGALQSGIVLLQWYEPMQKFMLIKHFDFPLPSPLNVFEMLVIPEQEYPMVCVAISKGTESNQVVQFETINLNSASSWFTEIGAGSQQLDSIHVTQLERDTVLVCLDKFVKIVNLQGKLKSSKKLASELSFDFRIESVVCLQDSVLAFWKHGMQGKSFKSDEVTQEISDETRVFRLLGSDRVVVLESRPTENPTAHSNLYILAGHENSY

Row | IC50 [4] | SMILES | inhibition at 1 µM [1] | inhibition at 1 µM [2] | inhibition at 1 µM [3]
1 |  | COc1ccc(F)cc1C(=O)NCc1ccc(-c2nn([C@@H](C)C(F)(F)F)c(N)c2C(N)=O)cc1 [LOXO-305, pirtobrutinib] | < 50% | < 50% | < 50%
2 | 1 to 100 nM | Cc1cc(-c2ccnc(Nc3cnn(CCN4[C@@H](c5ncccc5C)CCC[C@H]4c4ncccc4C)c3)n2)ccc1CNC(=O)N1CC(OC(C)C)C1 [Compound I-11] |  |  | 
3 | 1 to 100 nM | Cc1cccnc1[C@H]1CCC[C@@H](c2ncccc2C)N1CCCCNC(=O)[C@@H]1CC[C@@H](Nc2ncnc3[nH]cc(C(=O)c4ccc(Oc5ccccc5)cc4Cl)c23)CO1 [Compound I-16] |  |  | 
4 |  | C=CC(=O)N1CCC([C@@H]2CCNc3c(C(N)=O)c(-c4ccc(Oc5ccccc5)cc4)nn32)CC1 [Zanubrutinib, (7S)-2-(4-phenoxyphenyl)-7-(1-prop-2-enoylpiperidin-4-yl)-4,5,6,7-tetrahydropyrazolo[1,5-a]pyrimidine-3-carboxamide] | < 50% | < 50% | < 50%
5 | 1 to 100 nM | Cc1cccnc1[C@H]1CCC[C@@H](c2ncccc2C)N1CCCCNC(=O)OC[C@@H]1CC[C@@H](Nc2ncnc3[nH]cc(C(=O)c4ccc(Oc5ccccc5)cc4Cl)c23)CO1 [Compound I-18] |  |  | 
6 |  | O=C(c1ccc(Oc2ccccc2)cc1Cl)c1c[nH]c2ncnc(N[C@@H]3CC[C@@H](CO)OC3)c12 [ARQ-531, (2-chloro-4-phenoxyphenyl) (4-(((3R,6S)-6-(hydroxymethyl)tetrahydro-2H-pyran-3-yl)amino)-7H-pyrrolo[2,3-d]pyrimidin-5-yl) methanone] | 50 to 69% | 50 to 69% | 70 to 89%

Row | SMILES | IC50 [4] | inhibition at 1 µM [1] | inhibition at 1 µM [2] | inhibition at 1 µM [3]
7 | Cc1cccnc1[C@H]1CCC[C@@H](c2ncccc2C)N1CCN1CCN(C(=O)c2ccc(-c3cc4c(-c5cccc(NC(=O)c6ccccc6)c5C)ncnc4[nH]3)cc2)CC1 [Compound I-10, N-(3-(6-(4-(4-(2-((2R,6S)-2,6-bis(3-methylpyridin-2-yl)piperidin-1-yl)ethyl)piperazine-1-carbonyl)phenyl)-7H-pyrrolo[2,3-d]pyrimidin-4-yl)-2-methylphenyl)benzamide] | 1 to 100 nM | < 50% | < 50% | < 50%
